Structures can show the parent of a compound that is named as a salt.
Each compound was assayed against T1, muscarinic M1 receptor (Homo sapiens, UniProt P11229) (assay: Allosteric potency EC50 for muscarinic M1 receptor (CHO pCRE-Luc reporter assay)). Settings: in presence of EC20 of acetylcholine; CHO cells, luciferase reporter, 4 hours.
T1 sequence (P11229 1-460): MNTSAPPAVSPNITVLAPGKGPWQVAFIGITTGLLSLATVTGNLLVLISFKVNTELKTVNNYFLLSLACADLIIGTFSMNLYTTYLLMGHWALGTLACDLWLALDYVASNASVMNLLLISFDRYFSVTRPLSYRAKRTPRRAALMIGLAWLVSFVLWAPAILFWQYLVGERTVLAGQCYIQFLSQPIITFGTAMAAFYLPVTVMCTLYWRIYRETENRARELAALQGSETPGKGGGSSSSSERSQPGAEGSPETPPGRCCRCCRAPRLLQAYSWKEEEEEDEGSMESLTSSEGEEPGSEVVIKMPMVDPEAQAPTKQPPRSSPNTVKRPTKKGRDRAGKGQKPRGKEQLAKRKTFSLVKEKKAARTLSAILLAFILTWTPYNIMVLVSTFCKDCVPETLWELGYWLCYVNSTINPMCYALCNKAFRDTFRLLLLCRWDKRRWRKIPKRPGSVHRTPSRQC
Format: cell-based
Experimental: Determination of Allosteric Potency EC50 Values for Muscarinic M1 Receptor:
A stable CHO cell line expressing recombinant human Muscarinic M1 receptor and pCRE-Luc reporter system was used for cell-based assay. The assay offers a non-radioactive based approach to determine binding of a compound to GPCRs. In this specific assay, the level of intracellular cyclic AMP which is modulated by activation or inhibition of the receptor is measured. The recombinant cells harbor luciferase reporter gene under the control of cyclic AMP response element.
The above cells were grown in 96 well clear bottom white plates in Hams F12 medium containing 10% fetal bovine serum (FBS). Prior to the addition of compounds or standard agonist, cells were serum starved overnight. Increasing concentrations of test compounds were added along with EC20 of acetylcholine in OptiMEM medium to the cells. The incubation was continued at 37° C. in CO2 incubator for 4 hours. Medium was removed and cells were washed with phosphate buffered saline. The cells were lysed and luciferase activity was measured in a Luminometer. Luminescence units were plotted against the compound concentrations using Graphpad software. EC50 values of the compounds were defined as the concentration required in stimulating the luciferase activity by 50% in presence of EC20 of acetylcholine and the results are provided in table 1.

EC50 [nM] | Compound
234 | Cn1ccc2c(Cc3cccnc3)cc(C(=O)N[C@H]3CCCC[C@@H]3O)nc21 [Example 27, N-[(1S,2S)-2-Hydroxycyclohexyl]-4-(pyridin-3-ylmethyl)-1-methyl-1H-pyrrolo[2,3-b]pyridine-6-carboxamide]
811 | Cn1ccc2c(Cc3ccc(F)cc3)cc(C(=O)N[C@H]3CCCC[C@@H]3O)nc21 [Example 4, N-[(1S,2S)-2-Hydroxycyclohexyl]-4-(4-fluorobenzyl)-1-methyl-1H-pyrrolo[2,3-b]pyridine-6-carboxamide]
17 | Cn1cc(-c2ccc(Cc3cc(C(=O)N[C@H]4CCCC[C@@H]4O)nc4c3ccn4C)c(F)c2)cn1 [Example 8, N-[(1S,2S)-2-Hydroxycyclohexyl]-4-[2-fluoro-4-(1-methyl-1H-pyrazol-4-yl)benzyl]-1-methyl-1H-pyrrolo[2,3-b]pyridine-6-carboxamide]
641 | Cn1ccc2nc(C(=O)N[C@H]3CCCC[C@@H]3O)cc(Cc3ccc(F)cc3)c21 [Example 137, N-[(1S,2S)-2-Hydroxycyclohexyl]-7-(4-fluorobenzyl)-1-methyl-1H-pyrrolo[3,2-b]pyridine-5-carboxamide]
727 | O=C(N[C@H]1CCCC[C@@H]1O)c1cc(Cc2ccc(Cl)nc2)c2ccn(CCF)c2n1 [Example 23, N-[(1S,2S)-2-Hydroxycyclohexyl]-4-(2-chloropyridin-5-ylmethyl)-1-(2-fluoroethyl)-1H-pyrrolo[2,3-b]pyridine-6-carboxamide]
764 | Cn1ccc2c(Cc3ccc(-c4cscn4)cc3)cc(C(=O)N[C@@H]3CCOC[C@H]3O)nc21 (single isomer, unassigned; isomer-i) [Example 54, trans-N-(3-Hydroxytetrahydropyran-4-yl)-4-[4-(thiazol-4-yl)benzyl]-1-methyl-1H-pyrrolo[2,3-b]pyridine-6-carboxamide (Isomer-I)]
15 | Cn1ccc2c(Cc3ccc(-n4cccn4)cc3)cc(C(=O)N[C@H]3CCCC[C@@H]3O)nc21 [Example 6, N-[(1S,2S)-2-Hydroxycyclohexyl]-4-(4-pyrazol-1-ylbenzyl)-1-methyl-1H-pyrrolo[2,3-b]pyridine-6-carboxamide]
617 | Cn1ccc2c(Cc3ccc(-c4ccc(F)nc4)nc3)cc(C(=O)N[C@H]3CCCC[C@@H]3O)nc21 [Example 13, N-[(1S,2S)-2-Hydroxycyclohexyl]-4-(2′-fluoro-[2,5]bipyridinyl-5-ylmethyl)-1-methyl-1H-pyrrolo[2,3-b]pyridine-6-carboxamide]
130 | Cn1ccc2c(Cc3ccc(-c4cscn4)cc3)cc(C(=O)N[C@H]3CCCC[C@@H]3O)nc21 [Example 5, N-[(1S,2S)-2-Hydroxycyclohexyl]-4-(4-thiazol-4-ylbenzyl)-1-methyl-1H-pyrrolo[2,3-b]pyridine-6-carboxamide]

The remaining lines, values behind:

Compound | EC50 [nM]
COc1ccc(Cc2cc(C(=O)N[C@H]3CCCC[C@@H]3O)nc3c2OCCN3C)cc1 [Example 127, N-[(1S,2S)-2-Hydroxycyclohexyl]-8-(4-methoxybenzyl)-4-methyl-2H-pyrido[3,2-b][1,4]oxazine-6-carboxamide] | 946
Cn1ccc2c(Cc3ccnc(F)c3)cc(C(=O)NC3CCOCC3O)nc21 (single isomer, unassigned) [Example 38, Racemic trans-N-(3-Hydroxytetrahydropyran-4-yl)-4-(2-fluoropyridin-4-ylmethyl)-1-methyl-1H-pyrrolo[2,3-b]pyridine-6-carboxamide] | 983
Cn1ccc2c(Cc3ccc(F)c(F)c3)cc(C(=O)N[C@H]3CCOC[C@H]3O)nc21 (single isomer, unassigned; isomer-i) [Example 41, cis-N-(3-Hydroxytetrahydropyran-4-yl)-4-(3,4-difluorobenzyl)-1-methyl-1H-pyrrolo[2,3-b]pyridine-6-carboxamide (Isomer-I)] | 1230
Cn1ccc2c(Cc3ccnc(F)c3)cc(C(=O)N[C@@H]3CCOC[C@H]3O)nc21 (single isomer, unassigned; isomer-ii) [Example 40, trans-N-(3-Hydroxytetrahydropyran-4-yl)-4-(2-fluoropyridin-4-ylmethyl)-1-methyl-1H-pyrrolo[2,3-b]pyridine-6-carboxamide (Isomer-II)] | 755
Cn1ccc2c(Cc3cccc(F)c3F)cc(C(=O)N[C@@H]3CCOC[C@H]3O)nc21 (single isomer, unassigned; isomer-ii) [Example 44, trans-N-(3-Hydroxytetrahydropyran-4-yl)-4-(2,3-difluorobenzyl)-1-methyl-1H-pyrrolo[2,3-b]pyridine-6-carboxamide (Isomer-II)] | 748
Cn1ccc2c(Cc3ccc(F)cc3)cc(C(=O)N[C@H]3CCOC[C@H]3O)nc21 (single isomer, unassigned; isomer-ii) [Example 37, cis-N-(3-Hydroxytetrahydropyran-4-yl)-4-(4-fluorobenzyl)-1-methyl-1H-pyrrolo[2,3-b]pyridine-6-carboxamide (Isomer-II)] | 1250
CN1CCc2c(Cc3ccc(Cl)nc3)cc(C(=O)N[C@H]3CCCC[C@@H]3O)nc21 [Example 72, N-[(1S,2S)-2-Hydroxycyclohexyl]-4-(2-chloropyridin-5-ylmethyl)-1-methyl-2,3-dihydro-1H-pyrrolo[2,3-b]pyridine-6-carboxamide] | 494
CN1CCOc2c(Cc3ccc(-n4cccn4)cc3)cc(C(=O)N[C@H]3CCCC[C@@H]3O)nc21 [Example 129, N-[(1S,2S)-2-Hydroxycyclohexyl]-8-[4-pyrazol-1-ylbenzyl]-4-methyl-2H-pyrido[3,2-b][1,4]oxazine-6-carboxamide] | 15
Cn1ccc2c(Cc3ccc(-c4cscn4)cc3)cc(C(=O)N[C@@H]3CCOC[C@H]3O)nc21 (single isomer, unassigned; isomer-ii) [Example 55, trans-N-(3-Hydroxytetrahydropyran-4-yl)-4-[4-(thiazol-4-yl)benzyl]-1-methyl-1H-pyrrolo[2,3-b]pyridine-6-carboxamide (Isomer-II)] | 32
Cn1ccc2c(Cc3ccnc(F)c3)cc(C(=O)NC3CCOCC3O)nc21 (single isomer, unassigned) [Example 45, Racemic cis-N-(3-Hydroxytetrahydropyran-4-yl)-4-(2-fluoropyridin-4-ylmethyl)-1-methyl-1H-pyrrolo[2,3-b]pyridine-6-carboxamide] | 3150
COc1ccc(Cc2cc(C(=O)N[C@H]3CCCC[C@@H]3O)nc3c2OCCO3)cc1 [Example 104, N-[(1S,2S)-2-Hydroxycyclohexyl]-8-(4-methoxybenzyl)-2,3-dihydro-[1,4]dioxino[2,3-b]pyridine-6-carboxamide] | 231
O=C(N[C@@H]1CCOC[C@H]1O)c1cc(Cc2ccc(F)cc2)c2c(n1)CNCC2 (single isomer, unassigned; isomer-ii) [Example 98, trans-N-(3-Hydroxytetrahydropyran-4-yl)-4-(4-fluorobenzyl)-5,6,7,8-tetrahydro[1,7]naphthyridine-2-carboxamide Hydrochloride (Isomer-II)] | 109
Cn1ccc2c(Cc3ccc(Cl)nc3)cc(C(=O)N[C@H]3CCOC[C@H]3O)nc21 (single isomer, unassigned; isomer-ii) [Example 50, cis-N-(3-Hydroxytetrahydropyran-4-yl)-4-(2-chloropyridin-5-ylmethyl)-1-methyl-1H-pyrrolo[2,3-b]pyridine-6-carboxamide (Isomer-II)] | 2920
CN1CCOc2c(Cc3ccc(-c4cnn(C)c4)cc3)cc(C(=O)N[C@H]3CCCC[C@@H]3O)nc21 [Example 122, N-[(1S,2S)-2-Hydroxycyclohexyl]-8-[4-(1-methyl-1H-pyrazol-4-yl)benzyl]-4-methyl-2H-pyrido[3,2-b][1,4]oxazine-6-carboxamide] | 85
COc1ccc(Cc2cc(C(=O)N[C@H]3CCCC[C@@H]3O)nc3c2CCN3C)cc1 [Example 77, N-[(1S,2S)-2-Hydroxycyclohexyl]-4-(4-methoxybenzyl)-1-methyl-2,3-dihydro-1H-pyrrolo[2,3-b]pyridine-6-carboxamide] | 342
Cn1cc(-c2ccc(Cc3cc(C(=O)N[C@H]4CCCC[C@@H]4O)nc4c3OCCO4)cc2)cn1 [Example 106, N-[(1S,2S)-2-Hydroxycyclohexyl]-8-[4-(1-methyl-1H-pyrazol-4-yl)-benzyl]-2,3-dihydro-[1,4]dioxino[2,3-b]pyridine-6-carboxamide] | 14
Cn1ccc2c(Cc3ccc(F)cc3)cc(C(=O)N[C@H]3CCOC[C@H]3O)nc21 (single isomer, unassigned; isomer-i) [Example 36, cis-N-(3-Hydroxytetrahydropyran-4-yl)-4-(4-fluorobenzyl)-1-methyl-1H-pyrrolo[2,3-b]pyridine-6-carboxamide (Isomer-I)] | 3170

Reference: patent publication US11040026B2, “Muscarinic M1 receptor positive allosteric modulators” (SUVEN LIFE SCIENCES LIMITED, priority 2016, dated 2021)
